# According to patent publication US7833979B2, “Toxin peptide therapeutic agents” (Amgen Inc., priority 2005, dated 2010):
# Entries after “also recorded” stand apart in the source; their conditions may differ. Where no end group is shown, it is not given here.
# Columns and labels:
# [1] = tested on: thapsigargin-induced IL-2 and IFN-g production in human whole blood; experiment: Ex vivo human whole blood assay, thapsigargin-induced secretion of IL-2 and IFN-g; assay type: cell-based; conditions: for Thapsigargin-induced IFN-g production in human whole blood / Thapsigargin-induced IL-2 production in human whole blood: two donors, 48 hours
# [2] = cited from earlier work
# [3] = tested on: upregulation of CD40L and IL-2R on CD4+ T cells in human whole blood; experiment: Ex vivo human whole blood assay, thapsigargin-induced cell surface CD40L and IL-2R on T cells (FACS); assay type: cell-based; conditions: 24 hours
# [4] = Intravenous pharmacokinetic study in rats, serum levels by Kv1.3 inhibition bioassay; assay type: in vivo, Spraque Dawley rats; conditions: for Time of significant suppression of Kv1.3 current (<70 POC) by serum: single equal molar IV injection, 5% serum Test solutions
# Procedure: This dose represented equal molar amounts of these two molecules. The average weight of the rats was about 0.3 kg and two rats were used for each dose & molecule. At various times following IV injection, blood was drawn and about 0.1 ml of serum was collected. Serum samples were stored frozen at −80° C. until analysis.
# Assay Plate preparation for electrophysiology. […] Before experiments, each sample was thawed at room temperature and an aliquot (70 to 80 μl) was transferred to a well in a 96-well polypropylene plate. In order to prepare the Assay Plate, several dilutions were made from the pharmacokinetic serum samples to give rise to Test Solutions. Dilutions of serum samples from the pharmacokinetic study were into 10% Phosphate Buffered Saline (PBS, with Ca^2+ and Mg^2+). […] Standard inhibition curves were also prepared in the Assay Plate.
# Cell preparation for electrophysiology. CHO cells stably expressing the voltage-activated K^+ channel, Kv1.3 were plated in T-175 tissue culture flasks (at a density of 5×10^6) 2 days before experimentation and allowed to grow to around 95% confluence. Immediately prior to the experiment, the cells were washed with PBS and then detached with a 2 ml mixture (1:1 volume ratio) of trypsin (0.25%) and versene (1:5000) at 37° C. (for 3 minutes). […] The mean K^+ current amplitude was measured between 430 and 440 ms and the data were exported to a Microsoft Excel spreadsheet. The amplitude of the K^+ current in the presence of each concentration of the Test Solution or Standard was expressed as a percentage of the K^+ current in control conditions in the same well.
# Standard inhibition curves were generated for each standard in various levels of rat serum and expressed as current percent of control (POC) versus log of nM concentration. […]
# Beyond 48 hours, the level of drug falls outside the linear range of the Standard curve and is not calculated. […]
# [5] = tested on: IL-2 and IFNg production from anti-CD3 and anti-CD28 stimulated human PBMCs; experiment: Inhibition of T cell cytokine production following anti-CD3 and anti-CD28 antibody stimulation of PBMCs; assay type: cell-based; conditions: 48 hours
# Procedure: Inhibition of T cell cytokine production following Anti-CD3 and anti-CD28 antibody stimulation of PBMCs. PBMCs were previously isolated from normal human donor Leukopheresis packs, purified by density gradient centrifugation (Ficoll Hypaque), and cryopreserved using INCELL Freezing Medium. PBMCs were thawed (95% viability), washed, and seeded (in RPMI complete medium containing serum replacement, PSG) at 2×10^5 cells per well into 96-well flat bottom plates. Cells were pre-incubated with serially diluted (100 nM-0.003 nM final) ShK[1-35], Fc-L10-ShK[1-35], or Fc control for 1 hour before the addition of aCD3 and aCD28 (2.5 ng/mL and 100 ng/mL respectively) in a final assay volume of […]. Supernatants were collected after 48 hours, and analyzed using the Meso Scale Discovery (MSD) SECTOR™ Imager 6000 (Meso Scale Discovery, Gaithersbury, Md.) to measure the IL-2 and IFNg protein levels by utilizing electrochemiluminescence (ECL). […] of supernatant was added to the MSD multi-spot 96-well plates (each well containing IL-2, TNFa, and IFNg capture antibodies). The plates were sealed and incubated at room temperature on a plate shaker for 1 hour. Then […] of Ruthenium-labeled detection antibodies (1 ug/ml final of IL-2, TNFα, and IFNγ in Antibody Dilution Buffer) and […] of 2×MSD Read Buffer were added. The plates were sealed, covered with tin foil, and incubated at room temperature on a plate shaker for 1 hour. The plates were then read on the SECTOR™ Imager 6000. […] (POC=Percent Of Control of response in the absence of inhibitor).
# [6] = molecular target: Kv1.3 (Homo sapiens, UniProt P22001); experiment: Whole cell patch clamp electrophysiology on HEK293 cells stably expressing human Kv1.3; assay type: cell-based; conditions: for Blockade of human Kv1.3 current (in words): patch clamp electrophysiology; for selectivity ratio hKv1.1/hKv1.3: ratio of hKv1.1 IC50 to hKv1.3 IC50
# [7] = molecular target: T1, human Kv1.1 (Homo sapiens, UniProt Q09470); experiment: Whole cell patch clamp electrophysiology, HEK293 cell expression system, human Kv1.1; assay type: cell-based
# T1 construct: expressed in transfected cells; host or cells: HEK293
# [8] = tested on: AT-EAE model of multiple sclerosis; experiment: Adoptive transfer experimental autoimmune encephalomyelitis (AT-EAE) model of multiple sclerosis; assay type: in vivo, Lewis rats; conditions: for Survival to the end of the study: n=5 rats per group; for peak clinical severity score average: scale 0-6
# Chain of Kv1.3 (P22001 whole entry): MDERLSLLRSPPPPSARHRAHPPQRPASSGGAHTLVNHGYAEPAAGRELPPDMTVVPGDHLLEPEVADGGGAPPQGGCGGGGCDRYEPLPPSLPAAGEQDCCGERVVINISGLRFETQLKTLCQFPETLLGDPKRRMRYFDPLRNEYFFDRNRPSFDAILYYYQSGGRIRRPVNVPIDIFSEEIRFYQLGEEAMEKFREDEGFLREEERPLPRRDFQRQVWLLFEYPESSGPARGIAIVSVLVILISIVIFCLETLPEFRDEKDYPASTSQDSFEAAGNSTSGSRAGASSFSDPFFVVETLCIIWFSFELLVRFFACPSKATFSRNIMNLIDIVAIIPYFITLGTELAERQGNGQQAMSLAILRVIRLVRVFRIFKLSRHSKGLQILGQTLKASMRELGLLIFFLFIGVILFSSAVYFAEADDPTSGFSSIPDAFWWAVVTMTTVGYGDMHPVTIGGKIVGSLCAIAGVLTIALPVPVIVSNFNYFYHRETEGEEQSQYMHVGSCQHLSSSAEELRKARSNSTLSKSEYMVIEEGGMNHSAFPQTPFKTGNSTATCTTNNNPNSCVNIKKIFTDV
# T1 sequence (Q09470 whole entry): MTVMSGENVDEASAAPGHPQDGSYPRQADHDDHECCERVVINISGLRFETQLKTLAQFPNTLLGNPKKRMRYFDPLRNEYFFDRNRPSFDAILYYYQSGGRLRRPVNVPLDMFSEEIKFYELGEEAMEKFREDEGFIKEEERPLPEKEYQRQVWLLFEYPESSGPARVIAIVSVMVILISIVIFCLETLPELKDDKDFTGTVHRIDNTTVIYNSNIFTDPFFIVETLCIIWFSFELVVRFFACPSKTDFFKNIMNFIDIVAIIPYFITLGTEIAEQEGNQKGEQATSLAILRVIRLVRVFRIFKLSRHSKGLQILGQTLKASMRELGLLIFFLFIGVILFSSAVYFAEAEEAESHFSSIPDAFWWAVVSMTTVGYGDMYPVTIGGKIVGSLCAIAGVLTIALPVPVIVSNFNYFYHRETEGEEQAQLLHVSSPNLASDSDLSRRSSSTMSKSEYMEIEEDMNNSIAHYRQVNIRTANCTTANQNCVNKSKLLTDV
compound,measurement,setting,value
"CC[C@H](C)[C@@H]1NC(=O)[C@@H](NC(=O)[C@H](CO)NC(=O)[C@@H](N)CCCNC(=N)N)CSSC[C@@H](C(=O)O)NC(=O)[C@H]([C@@H](C)O)NC(=O)CNC(=O)[C@@H]2CSSC[C@@H]3NC(=O)[C@H](CCC(N)=O)NC(=O)[C@H](Cc4ccccc4)NC(=O)[C@H](C)NC(=O)[C@H]([C@@H](C)O)NC(=O)[C@H](CSSC[C@H](NC(=O)[C@H](Cc4ccccc4)NC(=O)[C@H](CO)NC(=O)[C@H](CC(C)C)NC(=O)[C@H](CCCNC(=N)N)NC(=O)[C@H](Cc4ccc(O)cc4)NC(=O)[C@H](CCCCN)NC(=O)[C@H](CCSC)NC(=O)[C@H](CO)NC(=O)[C@H](Cc4cnc[nH]4)NC(=O)[C@H](CCCCN)NC3=O)C(=O)N[C@@H](CCCNC(=N)N)C(=O)N[C@@H](CCCCN)C(=O)N[C@@H]([C@@H](C)O)C(=O)N2)NC(=O)[C@H](CCCNC(=N)N)NC(=O)[C@H](CO)NC(=O)[C@H](CCCCN)NC(=O)[C@@H]2CCCN2C(=O)[C@H]([C@@H](C)CC)NC(=O)[C@H]([C@@H](C)O)NC(=O)[C@H](CC(=O)O)NC1=O [ShK[1-35], Stichodactyla helianthus neurotoxin, reference compound]",Thapsigargin-induced IFN-g production in human whole blood,[1],suppressed
same,Thapsigargin-induced IL-2 production in human whole blood,[1],suppressed
same,Thapsigargin-induced IL-2 production in human whole blood,[1]; listed as ShK,potently blocked IL-2 secretion
same,half-life in vivo of ShK,[2],~0.333 h
same,half-life of native ShK,[2]; in vivo,approximately 0.33 hour
same,Thapsigargin-induced upregulation of CD40L on T cells in human whole blood,[3],suppressed
same,Thapsigargin-induced upregulation of the IL-2R on T cells in human whole blood,[3],suppressed
same,Thapsigargin-induced upregulation of the IL-2R on T cells in human whole blood,[3]; listed as ShK,suppressing activation of the IL-2R
same,Time of significant suppression of Kv1.3 current (<70 POC) by serum,[4],≤ 1 h
same,Inhibition of IFNg production,[5],only partial inhibtion
same,Inhibition of IL-2 production,[5],only partial inhibtion
same,Blockade of human Kv1.3 current (in words),[6],potently block Kv1.3
"Fc-L10-OSK1[E16K,K20D]: OSK1-peptibody with E16K and K20D substitutions; SEQ ID NO: 1045",selectivity ratio hKv1.1/hKv1.3,[6],403
"Fc-L10-OSK1[K7S,E16K,K20D]: OSK1-peptibody with K7S, E16K and K20D substitutions; SEQ ID NO: 1047",Potency and selectivity Kv1.3 versus Kv1.1 (in words),[7],significant decrease in potency as well as selectivity
same,selectivity ratio hKv1.1/hKv1.3,[6],12
Fc-L10-OSK1[K7S]: OSK1-peptibody with lysine to serine substitution at position 7; SEQ ID NO: 1043,IC50,"[7]; whole cell patch clamp, HEK293 cell expression system, human Kv1.1, read-out: hKv1.1:IC50",100 nM
same,selectivity ratio hKv1.1/hKv1.3,[6],269
Fc-L10-ShK[2-35]: human IgG1 Fc fused via 10 amino acid linker to ShK[2-35]; SEQ ID NO: 81,Potency in blocking IL-2 production relative to cyclosporine A (by IC50),[1]; human whole blood,more than 200 times
same,Thapsigargin-induced IFN-g production in human whole blood,[1],suppressed; also recorded: blocked
same,Thapsigargin-induced IL-2 production in human whole blood,[1],suppressed; also recorded: potently blocked IL-2 secretion
same,Thapsigargin-induced upregulation of CD40L on T cells in human whole blood,[3],blocked
same,Thapsigargin-induced upregulation of the IL-2R on T cells in human whole blood,[3],blocked; also recorded: suppressing activation of the IL-2R
same,Blockade of human Kv1.3 current (in words),[6],potently blocks human Kv1.3 current
"Fc-L-KTX1: peptibody: Fc fused via linker to Kaliotoxin1 (KTX1, SEQ ID NO: 24)",Blockade of human Kv1.3 current (in words),[6],blocked the human Kv1.3 current in a dose-dependent fashion
PEG-ShK[1-35]: synthetic ShK N-terminally PEGylated with 20 kDa monomethoxy-PEG-aldehyde by reductive alkylation; about 24-kDa,Average body weight lost,[8]; 1 ug/kg,30 g
same,Onset of disease,[8]; 1 μg/kg SC daily days −1 to 3,4 days
same,Average body weight lost,[8]; 10 μg/kg,18 g
same,Onset of disease,[8]; 10 μg/kg SC daily days −1 to 3,4.5 days
same,Survival to the end of the study,[8]; 10 μg/kg,all but one rat survived to the end of the study
same,peak clinical severity score average,[8]; 10 μg/kg,< 2
same,Average body weight lost,[8]; 100 μg/kg,11 g
same,Onset of disease,[8]; 100 μg/kg SC daily days −1 to 3,4.5 days
same,Survival to the end of the study,[8]; 100 μg/kg,all but one rat survived to the end of the study
same,peak clinical severity score average,[8]; 100 μg/kg,< 2
same,Disease severity and survival (in words),[8]; SC 10 μg/kg daily from day −1 to day 3,significantly reduced disease severity and increased survival
same,terminal half-life (t1/2 b),"[4]; IV injection 1 mg/kg, estimated from curve",6 to 12 h
same,Time of significant suppression of Kv1.3 current (<70 POC) by serum,[4],more than 24 hours
same,IC50,"[6]; blockade of peak outward potassium current, HEK293 cells stably expressing human Kv1.3, read-out: peak IC50",0.169 nM
PEG-ShK[2-35]: folded Des-Arg1-ShK N-terminally mono-PEGylated with 20 kDa MeO-PEG-aldehyde by reductive amination ({mPEG 20 kDa}-SCIDTIPKSRCTAFQCKHSMKYRLSFCRKTCGTC; disulfide (positions not given here); ends not checked; also: folded (disulfides not given here)),Blockade of human Kv1.3 current (in words),[6],active in blocking human Kv1.3
dendrotoxin-K,Thapsigargin-induced upregulation of CD40L on T cells in human whole blood,[3],no significant activity
same,Thapsigargin-induced upregulation of the IL-2R on T cells in human whole blood,[3],no significant activity
iberiotoxin (QFTDVDCSVSKECWSVCKDLFGVDRGKCMGKKCRCYQ; BKCa peptide inhibitor sequence - IbTx) [reference compound],Thapsigargin-induced IFN-g production in human whole blood,[1],no significant activity
same,Thapsigargin-induced IL-2 production in human whole blood,[1],no significant activity
same,Thapsigargin-induced upregulation of CD40L on T cells in human whole blood,[3],no significant activity
same,Thapsigargin-induced upregulation of the IL-2R on T cells in human whole blood,[3],no significant activity
